Results taken from US10226453B2, “3-(1H-indol-2-yl)-1H-pyrazolo[4,3-B]pyridines and therapeutic uses thereof” (Samumed, LLC, priority 2015, dated 2019).

How the values were obtained:
[1] = tested on: primary human fibroblasts derived from IPF patients (LL29 cells) treated with TGF-β1; assay: Inhibition of the fibrotic process: αSMA staining in TGF-β1 treated primary human fibroblasts from IPF patients (LL29 cells); format: cell-based; details: Fibroblast, 96 h, TGF-β1 20 ng/mL, 4 days; for EC50: % αSMA positive cells
In short: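 Read-out: fraction of αSMA-positive cells by high-content imaging, SYTOX-stained dead cells excluded, normalized to TGF-β1/DMSO wells. Cells got compound (10 μM–[…], 11 points) plus TGF-β1 20 ng/mL for 4 days. EC50 from triplicate curves; above 10 μM, % inhibition at 10 μM given.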

[2] = tested on: Wnt activity (Sp5-Luc reporter, SW480 colon carcinoma cells); assay: Wnt activity screening assay: Sp5-Luc reporter gene in SW480 colon carcinoma cells; format: cell-based; details: Homo sapiens; for EC50: overnight incubation, 10-point curve from 10 μM; for inhibition at 10 µM: given where EC50 >10 μM, read-out: percent inhibition at 10 μM
In short: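 Wnt-driven firefly luciferase in SW480 colon carcinoma cells reports pathway activity after overnight compound exposure (10 μM top concentration, 3-fold steps). Signal is normalized to DMSO controls.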

Row | SMILES | EC50 [2] | EC50 [1] | inhibition at 10 µM ([1]; given where EC50 >10 μM, 10 μM, read-out: percent inhibition at 10 μM) | inhibition at 10 µM [2]
1 | c1ccc(-c2ccc3[nH]nc(-c4cc5c(N6CCCCC6)cccc5[nH]4)c3n2)nc1 [Compound 196, 3-(4-(Piperidin-1-yl)-1H-indol-2-yl)-5-(pyridin-2-yl)-1H-pyrazolo[4,3-b] pyridine] | > 10000 nM | > 10000 nM | 5.2% | 6.2%
2 | Cc1ccncc1-c1ccc2[nH]nc(-c3cc4c(N5CCN(C)CC5)cccc4[nH]3)c2n1 [Compound 229, 3-(4-(4-Methylpiperazin-1-yl)-1H-indol-2-yl)-5-(4-methylpyridin-3-yl)-1H-pyrazolo[4,3-b]pyridine] | 2020 nM | 4920 nM | – | –
3 | CN1CCN(c2cccc3[nH]c(-c4n[nH]c5ccc(-c6cncc(NC(=O)c7ccccc7)c6)nc45)cc23)CC1 [Compound 235, N-(5-(3-(4-(4-Methylpiperazin-1-yl)-1H-indol-2-yl)-1H-pyrazolo[4,3-b]pyridin-5-yl)pyridin-3-yl)benzamide] | 4060 nM | 1690 nM | – | –
4 | CN1CCN(c2cccc3[nH]c(-c4n[nH]c5ccc(-c6cncnc6)nc45)cc23)CC1 [Compound 251, 3-(4-(4-Methylpiperazin-1l-yl)-1H-indol-2-yl)-5-(pyrimidin-5-yl)-1H-pyrazolo[4,3-b]pyridine] | > 10000 nM | 7790 nM | – | 38.4%
5 | c1cncc(-c2ccc3[nH]nc(-c4cc5ccccc5[nH]4)c3n2)c1 [Compound 256, 3-(1H-Indol-2-yl)-5-(pyridin-3-yl)-1H-pyrazolo[4,3-b]pyridine] | 1300 nM | 1140 nM | – | –
6 | CN(C)Cc1cncc(-c2ccc3[nH]nc(-c4cc5ccccc5[nH]4)c3n2)c1 [Compound 265, 1-(5-(3-(1H-Indol-2-yl)-1H-pyrazolo[4,3-b]pyridin-5-yl)pyridin-3-yl)-N,N-dimethylmethanamine] | 904 nM | 521 nM | – | –
7 | c1cc(-c2ccoc2)c2cc(-c3n[nH]c4ccc(-c5cncc(CNCC6CCCC6)c5)nc34)[nH]c2c1 [Compound 333, 1-Cyclopentyl-N-((5-(3-(4-(furan-3-yl)-1H-indol-2-yl)-1H-pyrazolo[4,3-b]pyridin-5-yl)pyridin-3-yl)methyl)methanamine] | 3640 nM | 955 nM | – | –

Compounds with a lower EC50 [2], results first:

Row | EC50 [2] | SMILES | EC50 [1] | inhibition at 10 µM ([1]; given where EC50 >10 μM, 10 μM, read-out: percent inhibition at 10 μM) | inhibition at 10 µM [2]
8 | 600 nM | CN(C)c1cncc(-c2ccc3[nH]nc(-c4cc5c(-c6ccoc6)cccc5[nH]4)c3n2)c1 [Compound 315, 5-(3-(4-(Furan-3-yl)-1H-indol-2-yl)-1H-pyrazolo[4,3-b]pyridin-5-yl)-N,N-dimethylpyridin-3-amine] | 631 nM | – | –
9 | 572 nM | CCCCC(=O)Nc1cncc(-c2ccc3[nH]nc(-c4cc5c(N6CCCCC6)cccc5[nH]4)c3n2)c1 [Compound 187, N-(5-(3-(4-(Piperidin-1-yl)-1H-indol-2-yl)-1H-pyrazolo[4,3-b]pyridin-5-yl)pyridin-3-yl)pentanamide] | 2040 nM | – | –
10 | 432 nM | FC1(F)CCN(Cc2cncc(-c3ccc4[nH]nc(-c5cc6c(-c7ccccn7)cccc6[nH]5)c4n3)c2)C1 [Compound 166, 5-(5-((3,3-Difluoropyrrolidin-1-yl)methyl)pyridin-3-yl)-3-(4-(pyridin-2-yl)-1H-indol-2-yl)-1H-pyrazolo[4,3-b]pyridine] | 164 nM | – | –
11 | 431 nM | c1ccc(-c2cccc3[nH]c(-c4n[nH]c5ccc(-c6cncnc6)nc45)cc23)nc1 [Compound 167, 3-(4-(Pyridin-2-yl)-1H-indol-2-yl)-5-(pyrimidin-5-yl)-1H-pyrazolo[4,3-b] pyridine] | 201 nM | – | –
12 | 117 nM | FC1(F)CCN(Cc2cncc(-c3ccc4[nH]nc(-c5cc6ccccc6[nH]5)c4n3)c2)C1 [Compound 278, 5-(5-((3,3-Difluoropyrrolidin-1-yl)methyl)pyridin-3-yl)-3-(1H-indol-2-yl)-1H-pyrazolo[4,3-b]pyridine] | 90 nM | – | –
